The supplement of paper PMC10307832

Key:
Assay in all cases: relative viability (nuclei count vs DMSO), 5 days (fraction); higher = more cells survive
[1] = compound: CN(C)C(=N)NC(=N)N [Metformin] + CC(=O)c1c(C)c2cnc(Nc3ccc(N4CCNCC4)cn3)nc2n(C2CCCC2)c1=O [Palbociclib] (partner 0.5 µM)
In short: (§1)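 The day after seeding in 1536-well plates, lung cancer cell lines were treated by pin tool with a single drug, or with a fixed anchor-drug dose together with five library-drug doses (not always all listed) in √10 steps. After 5 days, a combined fix-and-stain solution (final 0.05% Triton X-100, 1% formaldehyde, 1 ug/ml Hoechst) was added. Nuclei counted on 4× images gave relative viability as treated counts over vehicle counts, reported as the median of duplicate plates.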

[2] = compound: CN(C)C(=N)NC(=N)N [Metformin] + CC1(C)CCC(c2ccc(Cl)cc2)=C(CN2CCN(c3ccc(C(=O)NS(=O)(=O)c4ccc(N[C@H](CCN5CCOCC5)CSc5ccccc5)c(S(=O)(=O)C(F)(F)F)c4)cc3)CC2)C1 [Navitoclax] (partner 0.5 µM)
In short: as §1

[3] = compound: N#CC1(c2ccc(NC(=O)c3cccnc3NCc3ccncc3)cc2)CCCC1 [Apatinib] + C[C@@H](Oc1cc(-c2cnn(C3CCNCC3)c2)cnc1N)c1c(Cl)ccc(F)c1Cl [Crizotinib] (partner 1 µM)
In short: as §1

[4] = compound: N#CC1(c2ccc(NC(=O)c3cccnc3NCc3ccncc3)cc2)CCCC1 [Apatinib] + C[C@]1(O)C[C@@H](c2nc(-c3ccc4ccc(-c5ccccc5)nc4c3)c3c(N)nccn32)C1 [Linsitinib] (partner 1 µM)
In short: as §1

| Cell Line | relative viability ([1]; first compound 31.62 µM) | relative viability ([1]; first compound 100 µM) | relative viability ([1]; first compound 316.23 µM) | relative viability ([1]; first compound 1000 µM) | relative viability ([2]; first compound 10 µM) | relative viability ([2]; first compound 31.62 µM) | relative viability ([2]; first compound 100 µM) | relative viability ([2]; first compound 316.23 µM) | relative viability ([2]; first compound 1000 µM) | relative viability ([3]; first compound 0.08 µM) | relative viability ([3]; first compound 0.253 µM) | relative viability ([3]; first compound 0.8 µM) | relative viability ([3]; first compound 2.53 µM) | relative viability ([3]; first compound 8 µM) | relative viability ([4]; first compound 0.08 µM) | relative viability ([4]; first compound 0.253 µM) | relative viability ([4]; first compound 0.8 µM) | relative viability ([4]; first compound 2.53 µM) | relative viability ([4]; first compound 8 µM) | relative viability ([1]; first compound 10 µM) |
| --- | --- | --- | --- | --- | --- | --- | --- | --- | --- | --- | --- | --- | --- | --- | --- | --- | --- | --- | --- | --- |
| LCLC-97TM1 | 0.239 | 0.321 | 0.209 | 0.21 | 0.44 | 0.339 | 0.547 | 0.276 | 0.486 | 0.449 | 0.409 | 0.372 | 0.264 | 0.161 | 0.224 | 0.169 | 0.173 | 0.164 | 0.142 |  |
| NCI-H1993 | 0.701 | 0.739 | 0.576 | 0.67 | 1.04 | 1.04 | 1.28 | 0.968 | 1.25 | 0.943 | 0.868 | 0.782 | 0.801 | 0.68 | 0.751 | 0.648 | 0.742 | 0.715 | 0.775 | 0.63 |
| NCI-H520 | 0.269 | 0.277 | 0.22 | 0.269 | 1.1 | 1.08 | 1.13 | 0.979 | 1.19 | 0.912 | 0.701 | 0.737 | 0.614 | 0.45 | 1.12 | 0.948 | 0.842 | 0.876 | 0.878 | 0.271 |
| SK-MES-1 | 0.205 | 0.266 | 0.204 | 0.232 | 0.879 | 1.08 | 1.07 | 0.973 | 1.14 | 0.983 | 0.937 | 0.897 | 0.955 | 0.796 | 1.13 | 0.975 | 1.1 | 1.07 | 0.942 | 0.248 |
